Test results as given in patent US20260232668A1 (Kadmon Corporation, LLC, priority 2023, published 2026).
Entries after “also recorded” stand apart in the source; their conditions may differ. Where two headings read alike, the source gives them in different places.

Experiments:
[1] = system: murine model of sclerodermatous chronic graft-versus-host disease (GVHD); details: for survival: PO Days 21-55: belumosudil 125 mg/kg Days 21-32 then 100 mg/kg, ibrutinib 20 mg/kg, rilzabrutinib 40 mg/kg BID, vehicle 91.7%
[2] = system: B cells (CD20+) in human whole blood; assay: anti-CD79b-mediated B-cell activation in human whole blood (CD69 on CD20+ B cells, flow cytometry); format: cell-based; details: anti-CD79b stimulation
Procedure: Flow cytometric analyses were conducted using BD LSRFortessa™ Cell Analyzer (BD Biosciences) and the data analyzed by FlowJo (BD Biosciences). B-cell activation is determined by an increase in surface expression of activation marker CD69 on B cells (CD20+) following anti-CD79b stimulation. The experiment was conducted in duplicate.

[3] = cited from earlier work
[4] = system: sclerodermatous chronic GVHD model; assay: Example 2: mouse model of sclerodermatous chronic GVHD, single agents; format: in vivo
Procedure: Animals were not replaced during the course of the study. Mice were handled in accordance with standard conventional procedures. Animals were acclimatized for a minimum of 3 days prior to study commencement. […] The study was performed in animal rooms provided with filtered air at a temperature of 70±5° F. and 50% 20% relative humidity and an automatic timer for a light/dark cycle of 12 hours on and 12 hours off with no twilight.
On Day 0, a combination of bone marrow cells and splenocytes were transferred from donor LP/J mice to the recipients, as indicated in Table 2. […] The BM cells were isolated using standard flushing practices. […] All animals were monitored daily, and weight, survival, and disease progression were recorded following the scoring system described in Table 4.
On Day 20, animals were redistributed into groups so that the average scGVHD score was similar across all groups. Treatment was initiated on Day 21 and continued until Day 55. All dosing was performed BID to control for stress associated with oral gavage. […] On Days 33, 36, 39, 42, and 45, all animals were photographed under isoflurane anesthesia to assess disease severity.

[5] = system: murine model of sclerodermatous chronic graft-versus-host disease (GVHD); assay: Example 4: murine model of sclerodermatous chronic GVHD, ibrutinib and rilzabrutinib; format: in vivo, mouse; details: for animals that did not display progressive disease by Day 56 (standard GVHD scale): vehicle 9%; for lung sum and individual component histopathology scores vs vehicle: ibrutinib 12.5 and 25 mg/kg (Groups 4, 5), rilzabrutinib 20 and 40 mg/kg (Groups 6, 7), not statistically significant
Source text: Animals were acclimatized for at least three days prior to study commencement.
Sclerodermatous chronic GVHD was induced in C57Bl/6 (CD45.1) mice using a single acute dose of 8.5 Gy of TBI on Day −1. […] The BM cells were isolated using standard flushing practices. […] Additionally, following TBI on Day −1 and up to Day 8, all animals were given supplemental high calorie highly palatable food in a dish on the bottom of the cage. Following transfer on Day 0, and then again as needed, all animals were given 1 mL/animal/day of supplemental fluids (warmed ringers solution) via subcutaneous injection. An additional 1 mL fluid may have been given in the pm on an as needed basis.
Ibrutinib. Ibrutinib was formulated with vehicle (0.5% MC).
Animals were treated twice daily on Days 21-55.
Animals in Groups 4 and 5 were administered ibrutinib for the first/AM dose and vehicle for the last/PM dose each day of dosing.
The modified GVHD score for scGVHD was based on 5 criteria: percentage of weight change (0-4), posture (hunching) (0-3), activity (0-3), fur texture (0-4), and skin integrity (0-4) (maximum index=18). […] Animals that appeared to be in pain were administered buprenorphine BID, as needed.
Progression-free survival was defined as an increase in GVHD Score of […] in comparison to Day 21 GVHD Score (standard or modified).
Fixed lung and skin samples were embedded in paraffin, sectioned at 5 microns, and slides stained with hematoxylin and eosin (H&E). One slide per block was sectioned and stained with hematoxylin and eosin (H&E). All slides were evaluated and scored with light microscopy by a board-certified veterinary pathologist.
Parametric data (weight change) were evaluated using one-way ANOVA with Dunnett's multiple comparisons test to compare all groups to the vehicle control group. Non-parametric data (GVHD scores) were analyzed with Kruskal-Wallis with Dunn's post-hoc test. All statistical analyses were performed using GraphPad Prism 8.4.3 Software (La Jolla, CA). Statistical significance was achieved when p<0.05.
Skin and Lung Histopathology. […] One slide per block was sectioned and stained with H&E. All slides were evaluated and scored with light microscopy by a board-certified veterinary pathologist. […] Lung range: 0-10; skin range: 0-30.
Dermal Thickness Measurements. Using H&E-stained slides, the dermis was measured (μm) in five areas across the tissue, with a mean calculated for each sample. Measurements were performed from epidermal basement membrane to the most superficial border of dermal collagen with subcuticular adipose. These measurements were only performed in areas of non-tangentially sectioned tissue, free of histologic artifacts, and with an intact epidermis.
Statistical Analysis. Data are presented as mean±standard error of the mean (SEM). Semi-quantitative sum and component histopathology scores were analyzed (GraphPad Prism) by non-parametric ANOVA (Kruskal-Wallis H test) with Dunn's multiple comparison post-hoc tests; dermal measurements were analyzed by one-way ANOVA with post-hoc Tukey tests as appropriate. Significance was set at p<0.05 for all tests.

[6] = dose groups not distinguished in the legend

CC(C)NC(=O)COc1cccc(-c2nc(Nc3ccc4[nH]ncc4c3)c3ccccc3n2)c1 [belumosudil, 2-{3-[4-(1H-indazol-5-ylamino)-2-quinazolinyl]phenoxy}-N-(propan-2-yl) acetamide]
survival [1]: 80%
activated B cells (CD69 positive) ([2]; 10 μM compound, whole blood, anti-CD79b alone 73.4%): 82.4%
inhibition of B-cell activation in whole blood (dose-response graph) ([2]; 10 μM to 0.00017 μM): did not inhibit
belumosudil exposure ([3]; coadministration with proton pump inhibitors): decreases belumosudil exposure
belumosudil exposure ([3]; coadministration with strong CYP3A inducers): decreases belumosudil exposure

C=CC(=O)N1CCC[C@@H](n2nc(-c3ccc(Oc4ccccc4)cc3)c3c(N)ncnc32)C1 [ibrutinib, 1-[(3R)-3-[4-amino-3-(4-phenoxyphenyl)-1H-pyrazolo[3,4-d]pyrimidin-1-yl]-1-piperidinyl]-2-propen-1-one, reference compound]
survival [1]: 90%
GVHD scores ([4]; ibrutinib 25 mg/kg PO AM dose, Days 21-55, vs vehicle): numerical reduction in GVHD scores
body weight change (AUC Day 0-56) vs vehicle ([5]; 12.5 mg/kg (Group 4)): notably more weight gain
body weight change, death weight carried, vs vehicle ([5]; 12.5 mg/kg (Group 4)): trend of increased weight gain
animals that did not display progressive disease by Day 56 (standard GVHD scale) ([5]; 12.5 mg/kg (Group 4)): 10%
survival ([5]; 12.5 mg/kg PO AM dose, Days 21-55 (Group 4), to Day 56): survived until the end of the study
modified GVHD score (AUC) vs vehicle ([5]; 25 mg/kg (Group 5)): notably lower modified GVHD scores
modified GVHD score, death score carried: trend of lowered scores vs vehicle ([5]; 25 mg/kg (Group 5)): dampened after adjusting for survivor bias
skin sum histopathology score vs vehicle ([5]; 25 mg/kg (Group 5)): lowered sum scores
standard GVHD score (AUC) vs vehicle ([5]; 25 mg/kg (Group 5)): notably lower standard GVHD scores
standard GVHD score, death score carried: trend of lowered scores vs vehicle ([5]; 25 mg/kg (Group 5)): dampened after adjusting for survivor bias
dermal fibrosis score vs vehicle ([5]; 25 mg/kg (Group 5), p=0.02): statistically lowered dermal fibrosis scores
animals that did not display progressive disease by Day 56 (standard GVHD scale) ([5]; 25 mg/kg (Group 5)): 40%
survival ([5]; 25 mg/kg PO AM dose, Days 21-55 (Group 5), vehicle 82%): 90%
skin sum histopathology score (FIG. 10A legend) [5, 6]: Slightly lowered sum scores
lung sum and individual component histopathology scores vs vehicle ([5]; listed as ibrunitib): Small reductions; also recorded: slight reductions in sum histopathology scores

CC(C)(C=C(C#N)C(=O)N1CCC[C@@H](n2nc(-c3ccc(Oc4ccccc4)cc3F)c3c(N)ncnc32)C1)N1CCN(C2COC2)CC1 [rilzabrutinib, (R)-2-[3-[4-amino-3-(2-fluoro-4-phenoxy-phenyl)pyrazolo[3,4-d]pyrimidin-1-yl]piperidine-1-carbonyl]-4-methyl-4-[4-(oxetan-3-yl)piperazin-1-yl]pent-2-enenitrile]
standard GVHD score, death score carried, vs vehicle ([1]; Groups 4-8, rilzabrutinib 40 mg/kg BID (Group 6)): trend of lower standard GVHD scores
survival [1]: survived to the conclusion of the study
disease severity (GVHD scores, total GVHD burden AUC) ([4]; rilzabrutinib 20 and 40 mg/kg BID PO, Days 21-55): dose-dependent, with a greater reduction in disease severity observed at the higher 40 mg/kg dose
body weight change (AUC Day 0-56) vs vehicle ([5]; 20 mg/kg BID (Group 6)): notably more weight gain
body weight change, death weight carried, vs vehicle ([5]; 20 mg/kg BID (Group 6)): trend of increased weight gain
modified GVHD score (AUC) vs vehicle ([5]; 20 mg/kg BID (Group 6)): notably lower modified GVHD scores
modified GVHD score, death score carried: trend of lowered scores vs vehicle ([5]; 20 mg/kg BID (Group 6)): dampened after adjusting for survivor bias
standard GVHD score (AUC) vs vehicle ([5]; 20 mg/kg BID (Group 6)): notably lower standard GVHD scores
standard GVHD score, death score carried: trend of lowered scores vs vehicle ([5]; 20 mg/kg BID (Group 6)): dampened after adjusting for survivor bias
dermal thickness (H&E) ([5]; 20 mg/kg BID (Group 6), among-group p=0.3): small reduction in mean thickness
animals that did not display progressive disease by Day 56 (standard GVHD scale) ([5]; 20 mg/kg BID (Group 6)): 30%
survival ([5]; 20 mg/kg BID PO, Days 21-55 (Group 6), vehicle 82%): 80%
modified GVHD score (AUC) vs vehicle ([5]; 40 mg/kg BID (Group 7)): notably lower modified GVHD scores
modified GVHD score, death score carried: trend of lowered scores vs vehicle ([5]; 40 mg/kg BID (Group 7)): dampened after adjusting for survivor bias
standard GVHD score (AUC) vs vehicle ([5]; 40 mg/kg BID (Group 7)): notably lower standard GVHD scores
standard GVHD score, death score carried: trend of lowered scores vs vehicle ([5]; 40 mg/kg BID (Group 7)): dampened after adjusting for survivor bias
dermal fibrosis score vs vehicle ([5]; 40 mg/kg BID (Group 7), p=0.09): statistical trend toward lowered scores
animals that did not display progressive disease by Day 56 (standard GVHD scale) ([5]; 40 mg/kg BID (Group 7)): 10%
survival ([5]; 40 mg/kg BID PO, Days 21-55 (Group 7), vehicle 82%): 90%
dermal thickness (FIG. 11 legend) [5, 6]: slight reduction in dermal thickness
skin sum histopathology score (FIG. 10A legend) [5, 6]: Slightly lowered sum scores
skin sum histopathology score vs vehicle ([5]; either dose, 20 and 40 mg/kg BID (Groups 6 and 7)): lowered sum scores
lung sum and individual component histopathology scores vs vehicle [5]: Small reductions
lung sum and individual component histopathology scores vs vehicle ([5]; listed as rilzabrunitib): slight reductions in sum histopathology scores
IC50 ([2]; Homo sapiens, B-cell, dose-response 10 μM to 0.00017 μM, read-out: IC50 of inhibition of B-cell activation in whole blood): 9.5 nM
